How the values were obtained:
[1] = system: form deprivation myopia in guinea pigs; assay: Oral (gavage) L-arginine in form deprivation myopia; assay type: in vivo, guinea pig (Cavia porcellus)
Excerpt: Guinea pigs (pigmented variety, Cavia porcellus) were bred, housed, and raised as described in Example 1. The University of Newcastle Animal Care and ethics Committee approved all procedures.
Two experimental protocols were employed (Table 3). In Experiment 1, 12 animals wore a diffuser over one eye (form-deprivation, FD) for […]. This period reliably induces myopia in the deprived eye compared to the untreated fellow eye. Seven of these animals also concurrently received a single gavage of L-arginine (200 mg/kg/day) each day at 9:30 am while briefly anaesthetised. […]
At the end of the FD period, at 12 days of age (Experiment 1) or at […] (Experiment 2), after the morning gavage treatment, both eyes were cyclopleged and 1.25 hours later, refractive error was measured. […]
After cycloplegia was induced, refractive error was measured in each eye using streak retinoscopy as previously described (Howlett and McFadden, 2007; McFadden et al., 2004). The spherical equivalent was calculated as the average of the horizontal and vertical meridians (see Howlett and McFadden, 2006). Next, ocular length was measured using high frequency ultrasound (20 MHz) as previously described (McFadden et al, 2004). At least 20 traces were recorded for each eye and distances were averaged for at least 10 of these recordings. […]

[2] = system: normal eye growth in guinea pigs; assay: Eye drops on normal growth and emmetropization (no lens wear); assay type: in vivo, guinea pig (Cavia porcellus); conditions: eye drops twice daily 9-16 days of age
Method: Two experimental protocols were employed (see Table 4). In Experiment 1, young guinea pigs wore a −6D lens on one eye from 5-12 days of age. They were randomly divided within each litter into two groups of 10 animals each, and received either a drop of L-Arginine (100 mM, 1.7%) in Saline (pH 7.4) or Saline alone (0.9%, pH 7.4) twice per day in the eye wearing the lens (Table 4). Drops were administered at the beginning of their light cycle and again approximately 6 hrs later in the middle of their day cycle. Lenses were removed during the drop administration which occurred under dim red light or in darkness. A single large drop was bathed on the cornea for 3 min in the lens-wearing eye in hand held animals. A clean lens was then reintroduced onto the eye. In Experiment 2, 14 guinea pigs were given eye drops in the same manner as in Experiment 1, but in both eyes and without any lens-wear, to determine the effect of the eye drops on normal eye growth. Animals received one drop of either 1.7% L-arginine (n=7) or atropine (Minims Atropine Sulphate 1%, Bausch & Lomb, preservative free, n=7) in one eye and saline (0.9%) in the other eye twice per day from 9-16 days of age.
In Experiment 1, at the end of the lens-wearing period, at 12 days of age just before the morning lights came on, both eyes were cyclopleged (1% Cyclopentolate—to paralyse the focussing muscles of the eye to a resting state) and 1.25 hours later, refractive error (RE) was measured. Animals were then anaesthetised with gaseous anaesthetic (1.5% isoflurane in oxygen) and eye length measures were taken in both eyes with high frequency ultrasound as described in Example 1. Biometry measures were also taken in the same manner before the lens wear period at 5 days of age. [No refractive measures were done at 5 days of age as cycloplegia could have interfered with the drug or lens response]. In Experiment 2, refractive error and eye length using ultrasound were measured in the same manner at 17 days of age, 24 hours after the previous drop was administered.
After cycloplegia was induced, refractive error was measured in each eye using an Autorefractor (Nidek AR-20, Japan). The spherical equivalent was calculated as the average of the sphere plus half the cylinder as is normal in clinical practice. All reported refractive errors are the spherical equivalent. Next, ocular length was measured using high frequency ultrasound (20 MHz) as previously described (McFadden et al, 2004). At least 20 traces were recorded for each eye and distances were averaged for at least 10 of these recordings. Peaks from the recordings were selected for the back of the cornea, the crystalline lens, and the vitreous chamber, and the layers at the back of the eye: the retina, choroid, and sclera. Ocular length was defined as the summed measurement from the front of the cornea to the back of the sclera.
Differences between the two eyes were analysed by a 2-tailed T-tests. The mean of calculated differences between the two eyes is referred to as relative myopia or relative ocular length and the difference in the change in ocular length in the treated compared to the untreated eye as relative growth.

N=C(N)NCCC[C@H](N)C(=O)O [L-arginine]
relative elongation (FD eye vs untreated eye) ([1]; Experiment 1: 200 mg/kg once daily gavage, 7 days FD, p=0.714): 42±30 μm | eye lengths vs animals only fed water ([1]; Experiment 2: 25 mg/kg twice daily gavage, 3 days FD, both the FD eye and the fellow eye): smaller eye lengths than animals only fed water | ocular length on average ([2]; measured at 17 days, p=0.22 between groups): 8.124 mm | mean refractive error, both eyes averaged ([2]; measured at 17 days, p=0.32 between groups): +4.43 | effect on refractive error (drug eye vs saline eye) ([2]; no lens, 1.7% LA (p=0.69) or 1% Atropine (p=0.40)): did not affect the refractive error of the eye | difference between the two eyes in ocular length (drug eye vs saline control eye) ([2]; LA p=0.39, ATR p=0.42): −33 μm
